Columns and labels:
Assay in all cases: radiometric filter-binding kinase assay
MAPK13 (human) = MAPK13 (human) (UniProt O15264)
AURKA (human) = AURKA (human) (UniProt O14965)
CHEK1 (human) = CHEK1 (human) (UniProt O14757)
[1] = test system: AKT2 (human), P31751 [S474D]
MAP3K9 (human) = MAP3K9 (human) (UniProt P80192)
MAP3K5 (human) = MAP3K5 (human) (UniProt Q99683)
PAK6 (human) = PAK6 (human) (UniProt Q9NQU5)
MYLK (human) = MYLK (human) (UniProt Q15746)
MAPK9 (human) = MAPK9 (human) (UniProt P45984)
MAPK10 (human) = MAPK10 (human) (UniProt P53779)
GCK (human) = GCK (human) (UniProt Q12851)
SRC (human) = SRC (human) (UniProt P12931)
AURKB (human) = AURKB (human) (UniProt Q96GD4)
PRKCZ (human) = PRKCZ (human) (UniProt Q05513)
MARK4 (human) = MARK4 (human) (UniProt Q96L34)
[2] = test system: PAK2 (human), Q13177 [T402E]
HIPK1 (human) = HIPK1 (human) (UniProt Q86Z02)
[3] = molecular target: STK11 CAB39 STRADA (human) (UniProt Q9Y376+Q7RTN6+Q15831)
GSK3B (human) = GSK3B (human) (UniProt P49841)
IGF1R (human) = IGF1R (human) (UniProt P08069)
FLT1 (human) = FLT1 (human) (UniProt P17948)
EPHB4 (human) = EPHB4 (human) (UniProt P54760)
MAP3K1 (human) = MAP3K1 (human) (UniProt Q13233)
TAOK1 (human) = TAOK1 (human) (UniProt Q7L7X3)
HIPK2 (human) = HIPK2 (human) (UniProt Q9H2X6)
FGFR1 (human) = FGFR1 (human) (UniProt P11362)
EEF2K (human) = EEF2K (human) (UniProt O00418)
YES1 (human) = YES1 (human) (UniProt P07947)
EPHB1 (human) = EPHB1 (human) (UniProt P54762)
TTK (human) = TTK (human) (UniProt P33981)
MELK (human) = MELK (human) (UniProt Q14680)
CSNK1D (human) = CSNK1D (human) (UniProt P48730)
MAP2K2 (human) = MAP2K2 (human) (UniProt P36507)
PKN2 (human) = PKN2 (human) (UniProt Q16513)
MAPK1 (human) = MAPK1 (human) (UniProt P28482)
SYK (human) = SYK (human) (UniProt P43405)

Sequence of CSNK1D (human) (P48730 whole entry, looked up): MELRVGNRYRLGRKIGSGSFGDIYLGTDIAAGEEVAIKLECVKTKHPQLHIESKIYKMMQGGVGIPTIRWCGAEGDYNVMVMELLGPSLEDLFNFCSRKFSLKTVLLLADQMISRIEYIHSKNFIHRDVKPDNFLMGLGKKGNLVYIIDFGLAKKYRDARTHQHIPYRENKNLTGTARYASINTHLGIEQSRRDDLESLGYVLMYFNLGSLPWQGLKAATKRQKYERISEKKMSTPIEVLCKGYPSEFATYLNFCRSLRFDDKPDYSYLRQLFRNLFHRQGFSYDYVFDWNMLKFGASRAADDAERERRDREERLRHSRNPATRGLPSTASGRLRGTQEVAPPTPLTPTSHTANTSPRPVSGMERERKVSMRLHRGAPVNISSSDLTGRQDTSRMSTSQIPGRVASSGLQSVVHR
Sequence of TAOK1 (human) (Q7L7X3 whole entry, looked up): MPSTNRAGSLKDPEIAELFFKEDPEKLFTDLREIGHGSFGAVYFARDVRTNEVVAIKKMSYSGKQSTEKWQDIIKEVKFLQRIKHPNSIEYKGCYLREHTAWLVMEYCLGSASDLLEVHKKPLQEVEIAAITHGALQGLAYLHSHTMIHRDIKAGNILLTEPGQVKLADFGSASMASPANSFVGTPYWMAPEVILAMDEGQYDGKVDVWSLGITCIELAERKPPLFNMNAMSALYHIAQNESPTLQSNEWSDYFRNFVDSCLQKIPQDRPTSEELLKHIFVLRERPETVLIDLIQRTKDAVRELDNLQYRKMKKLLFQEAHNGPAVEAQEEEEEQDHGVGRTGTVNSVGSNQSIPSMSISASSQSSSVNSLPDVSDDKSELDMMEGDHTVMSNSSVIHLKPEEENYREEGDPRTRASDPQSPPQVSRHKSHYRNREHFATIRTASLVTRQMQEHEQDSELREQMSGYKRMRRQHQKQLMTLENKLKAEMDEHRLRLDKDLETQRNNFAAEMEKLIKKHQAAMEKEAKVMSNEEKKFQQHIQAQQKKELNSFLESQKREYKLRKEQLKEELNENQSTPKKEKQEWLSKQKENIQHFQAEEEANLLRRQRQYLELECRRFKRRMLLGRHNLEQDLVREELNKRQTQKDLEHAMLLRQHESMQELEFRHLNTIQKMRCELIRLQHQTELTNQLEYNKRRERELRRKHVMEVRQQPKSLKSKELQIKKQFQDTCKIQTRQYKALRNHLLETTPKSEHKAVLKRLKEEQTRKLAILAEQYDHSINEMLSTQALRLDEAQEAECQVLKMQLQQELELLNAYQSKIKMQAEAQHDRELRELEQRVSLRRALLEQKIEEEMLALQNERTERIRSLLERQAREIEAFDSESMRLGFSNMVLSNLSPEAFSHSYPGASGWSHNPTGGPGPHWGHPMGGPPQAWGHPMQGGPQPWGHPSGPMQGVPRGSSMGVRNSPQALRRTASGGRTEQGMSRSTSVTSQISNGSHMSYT
Sequence of HIPK2 (human) (Q9H2X6 whole entry, looked up): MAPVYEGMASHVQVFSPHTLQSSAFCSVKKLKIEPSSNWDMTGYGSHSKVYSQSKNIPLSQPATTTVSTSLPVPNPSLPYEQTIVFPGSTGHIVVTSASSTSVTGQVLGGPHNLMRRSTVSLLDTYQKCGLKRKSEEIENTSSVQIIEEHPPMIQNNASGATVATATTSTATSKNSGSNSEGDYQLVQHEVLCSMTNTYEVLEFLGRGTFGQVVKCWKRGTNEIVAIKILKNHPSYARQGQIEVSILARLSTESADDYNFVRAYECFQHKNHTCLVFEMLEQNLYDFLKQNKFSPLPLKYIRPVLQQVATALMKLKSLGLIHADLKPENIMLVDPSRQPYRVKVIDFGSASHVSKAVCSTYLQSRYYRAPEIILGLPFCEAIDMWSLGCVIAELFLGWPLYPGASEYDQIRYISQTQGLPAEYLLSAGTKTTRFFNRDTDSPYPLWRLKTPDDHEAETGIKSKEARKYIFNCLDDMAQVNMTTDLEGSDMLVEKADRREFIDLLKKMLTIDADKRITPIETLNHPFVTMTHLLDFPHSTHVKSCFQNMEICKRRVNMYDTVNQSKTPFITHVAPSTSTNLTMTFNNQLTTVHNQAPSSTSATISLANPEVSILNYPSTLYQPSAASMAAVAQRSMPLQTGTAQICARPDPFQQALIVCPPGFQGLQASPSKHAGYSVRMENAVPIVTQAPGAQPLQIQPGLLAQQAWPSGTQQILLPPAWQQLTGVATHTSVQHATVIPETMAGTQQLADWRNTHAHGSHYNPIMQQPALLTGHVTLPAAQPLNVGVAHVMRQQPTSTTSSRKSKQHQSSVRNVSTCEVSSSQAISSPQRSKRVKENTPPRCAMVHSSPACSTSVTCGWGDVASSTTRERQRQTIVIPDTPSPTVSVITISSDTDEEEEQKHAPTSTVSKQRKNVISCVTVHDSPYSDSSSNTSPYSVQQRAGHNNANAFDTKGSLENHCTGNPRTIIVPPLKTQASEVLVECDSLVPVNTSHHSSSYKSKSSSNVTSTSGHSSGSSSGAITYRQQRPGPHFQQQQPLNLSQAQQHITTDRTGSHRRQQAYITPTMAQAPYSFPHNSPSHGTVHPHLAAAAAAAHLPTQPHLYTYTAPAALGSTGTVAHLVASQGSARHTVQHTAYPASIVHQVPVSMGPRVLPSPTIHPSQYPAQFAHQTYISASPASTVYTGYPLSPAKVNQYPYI
Sequence of AURKA (human) (O14965 whole entry, looked up): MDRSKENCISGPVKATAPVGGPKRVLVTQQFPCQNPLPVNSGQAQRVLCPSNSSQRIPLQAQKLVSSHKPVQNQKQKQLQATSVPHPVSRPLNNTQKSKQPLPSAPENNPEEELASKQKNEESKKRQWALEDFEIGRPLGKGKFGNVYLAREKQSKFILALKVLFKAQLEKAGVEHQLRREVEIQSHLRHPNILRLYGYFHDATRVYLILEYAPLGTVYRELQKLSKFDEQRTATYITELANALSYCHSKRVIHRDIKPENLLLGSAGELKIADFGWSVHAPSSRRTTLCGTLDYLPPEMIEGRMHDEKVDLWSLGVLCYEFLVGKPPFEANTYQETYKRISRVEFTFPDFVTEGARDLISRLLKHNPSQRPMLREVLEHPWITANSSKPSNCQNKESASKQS
Sequence of CHEK1 (human) (O14757 whole entry, looked up): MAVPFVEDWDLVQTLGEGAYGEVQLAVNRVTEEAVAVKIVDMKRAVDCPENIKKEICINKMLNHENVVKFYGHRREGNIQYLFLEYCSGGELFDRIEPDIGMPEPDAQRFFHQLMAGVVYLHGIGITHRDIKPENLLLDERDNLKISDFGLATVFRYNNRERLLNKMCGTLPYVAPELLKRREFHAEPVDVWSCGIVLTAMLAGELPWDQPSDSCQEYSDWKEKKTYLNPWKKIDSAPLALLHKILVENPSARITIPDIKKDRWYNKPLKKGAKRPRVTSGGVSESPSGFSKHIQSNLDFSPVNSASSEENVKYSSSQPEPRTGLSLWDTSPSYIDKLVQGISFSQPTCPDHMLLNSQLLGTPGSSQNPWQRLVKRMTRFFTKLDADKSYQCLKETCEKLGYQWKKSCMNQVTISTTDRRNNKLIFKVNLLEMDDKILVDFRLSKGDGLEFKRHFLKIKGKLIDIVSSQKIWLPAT
Sequence of SRC (human) (P12931 whole entry, looked up): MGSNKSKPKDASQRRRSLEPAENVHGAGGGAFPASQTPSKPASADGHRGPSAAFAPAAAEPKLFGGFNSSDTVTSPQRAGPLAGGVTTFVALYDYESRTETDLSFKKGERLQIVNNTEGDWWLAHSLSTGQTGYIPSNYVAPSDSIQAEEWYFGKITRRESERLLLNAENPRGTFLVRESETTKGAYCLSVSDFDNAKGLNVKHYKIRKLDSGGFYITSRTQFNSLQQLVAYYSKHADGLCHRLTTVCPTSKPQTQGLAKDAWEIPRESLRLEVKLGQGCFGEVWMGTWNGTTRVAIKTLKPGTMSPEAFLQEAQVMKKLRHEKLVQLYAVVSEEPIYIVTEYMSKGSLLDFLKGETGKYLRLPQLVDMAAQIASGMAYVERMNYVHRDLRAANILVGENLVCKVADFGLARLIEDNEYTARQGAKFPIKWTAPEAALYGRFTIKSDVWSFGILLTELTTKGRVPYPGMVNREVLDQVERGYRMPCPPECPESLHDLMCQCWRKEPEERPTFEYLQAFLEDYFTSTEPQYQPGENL
Sequence of MAPK9 (human) (P45984 whole entry, looked up): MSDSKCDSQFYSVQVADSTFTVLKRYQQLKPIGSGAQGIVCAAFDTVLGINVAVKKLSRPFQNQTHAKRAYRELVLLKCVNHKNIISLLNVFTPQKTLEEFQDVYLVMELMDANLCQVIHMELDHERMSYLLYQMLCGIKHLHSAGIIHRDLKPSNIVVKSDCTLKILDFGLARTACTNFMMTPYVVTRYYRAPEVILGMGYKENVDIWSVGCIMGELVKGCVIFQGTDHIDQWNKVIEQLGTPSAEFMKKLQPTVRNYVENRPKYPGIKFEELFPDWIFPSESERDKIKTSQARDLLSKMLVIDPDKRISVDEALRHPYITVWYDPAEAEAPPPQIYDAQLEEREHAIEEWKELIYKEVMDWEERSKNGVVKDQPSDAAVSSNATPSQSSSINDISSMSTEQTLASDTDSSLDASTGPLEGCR
Sequence of MAPK13 (human) (O15264 whole entry, looked up): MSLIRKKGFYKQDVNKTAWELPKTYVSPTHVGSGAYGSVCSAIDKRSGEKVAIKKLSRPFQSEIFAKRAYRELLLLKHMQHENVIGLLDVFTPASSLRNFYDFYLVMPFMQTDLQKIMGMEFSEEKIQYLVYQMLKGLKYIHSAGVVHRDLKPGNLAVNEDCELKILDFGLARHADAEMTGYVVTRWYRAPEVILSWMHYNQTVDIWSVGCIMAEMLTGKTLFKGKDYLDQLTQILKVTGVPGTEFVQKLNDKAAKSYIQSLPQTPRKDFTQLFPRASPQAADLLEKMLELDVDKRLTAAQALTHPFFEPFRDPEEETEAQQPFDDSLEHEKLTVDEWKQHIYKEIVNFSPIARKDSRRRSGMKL

NC(=O)c1ccc(-c2ccc(Oc3cncc4sc(-c5nn[nH]n5)cc34)cc2)cc1 showed a residual activity (MAPK13 (human); compound 1.0 µM) of 92%, a residual activity (MAPK13 (human); compound 10.0 µM) of 54% and a residual activity (AURKA (human); compound 1.0 µM) of 103%. The residual activity (AURKA (human); compound 10.0 µM) was 78%, the residual activity (CHEK1 (human); compound 1.0 µM) was 79% and the residual activity (CHEK1 (human); compound 10.0 µM) was 87%. For the same compound, the residual activity ([1]; compound 1.0 µM) was 77%, the residual activity ([1]; compound 10.0 µM) was 62% and the residual activity (MAP3K9 (human); compound 1.0 µM) was 95%. For the same compound, the residual activity (MAP3K9 (human); compound 10.0 µM) was 42%, the residual activity (MAP3K5 (human); compound 1.0 µM) was 104% and the residual activity (MAP3K5 (human); compound 10.0 µM) was 112%. For the same compound, the residual activity (PAK6 (human); compound 1.0 µM) was 89%, the residual activity (PAK6 (human); compound 10.0 µM) was 87% and the residual activity (MYLK (human); compound 1.0 µM) was 86%. It also gave a residual activity (MYLK (human); compound 10.0 µM) of 35%, a residual activity (MAPK9 (human); compound 1.0 µM) of 99% and a residual activity (MAPK9 (human); compound 10.0 µM) of 85%. The residual activity (MAPK10 (human); compound 1.0 µM) was 105%, the residual activity (MAPK10 (human); compound 10.0 µM) was 72% and the residual activity (GCK (human); compound 1.0 µM) was 78%. The residual activity (GCK (human); compound 10.0 µM) was 13%, the residual activity (SRC (human); compound 1.0 µM) was 85% and the residual activity (SRC (human); compound 10.0 µM) was 92%. The residual activity (AURKB (human); compound 1.0 µM) was 84%, the residual activity (AURKB (human); compound 10.0 µM) was 58% and the residual activity (PRKCZ (human); compound 1.0 µM) was 100%. The residual activity (PRKCZ (human); compound 10.0 µM) was 67%, the residual activity (MARK4 (human); compound 1.0 µM) was 86% and the residual activity (MARK4 (human); compound 10.0 µM) was 78%. It also gave a residual activity ([2]; compound 1.0 µM) of 93%, a residual activity ([2]; compound 10.0 µM) of 90% and a residual activity (HIPK1 (human); compound 1.0 µM) of 104%. It also gave a residual activity (HIPK1 (human); compound 10.0 µM) of 9%, a residual activity ([3]; compound 1.0 µM) of 80% and a residual activity ([3]; compound 10.0 µM) of 59%. The residual activity (GSK3B (human); compound 1.0 µM) was 38%, the residual activity (GSK3B (human); compound 10.0 µM) was 10% and the residual activity (IGF1R (human); compound 1.0 µM) was 107%. It also gave a residual activity (IGF1R (human); compound 10.0 µM) of 95%, a residual activity (FLT1 (human); compound 1.0 µM) of 84% and a residual activity (FLT1 (human); compound 10.0 µM) of 24%. The residual activity (EPHB4 (human); compound 1.0 µM) was 97%, the residual activity (EPHB4 (human); compound 10.0 µM) was 96% and the residual activity (MAP3K1 (human); compound 1.0 µM) was 99%. For the same compound, the residual activity (MAP3K1 (human); compound 10.0 µM) was 51%, the residual activity (TAOK1 (human); compound 1.0 µM) was 82% and the residual activity (TAOK1 (human); compound 10.0 µM) was 36%. The residual activity (HIPK2 (human); compound 1.0 µM) was 64%, the residual activity (HIPK2 (human); compound 10.0 µM) was 10% and the residual activity (FGFR1 (human); compound 1.0 µM) was 105%. For the same compound, the residual activity (FGFR1 (human); compound 10.0 µM) was 61%, the residual activity (EEF2K (human); compound 1.0 µM) was 100% and the residual activity (EEF2K (human); compound 10.0 µM) was 101%. The residual activity (YES1 (human); compound 1.0 µM) was 91%, the residual activity (YES1 (human); compound 10.0 µM) was 87% and the residual activity (EPHB1 (human); compound 1.0 µM) was 95%. For the same compound, the residual activity (EPHB1 (human); compound 10.0 µM) was 107%, the residual activity (TTK (human); compound 1.0 µM) was 79% and the residual activity (TTK (human); compound 10.0 µM) was 51%. For the same compound, the residual activity (MELK (human); compound 1.0 µM) was 77%, the residual activity (MELK (human); compound 10.0 µM) was 62% and the residual activity (CSNK1D (human); compound 1.0 µM) was 90%. The residual activity (CSNK1D (human); compound 10.0 µM) was 59%, the residual activity (MAP2K2 (human); compound 1.0 µM) was 81% and the residual activity (MAP2K2 (human); compound 10.0 µM) was 75%. For the same compound, the residual activity (PKN2 (human); compound 1.0 µM) was 80%, the residual activity (PKN2 (human); compound 10.0 µM) was 53% and the residual activity (MAPK1 (human); compound 1.0 µM) was 96%. For the same compound, the residual activity (MAPK1 (human); compound 10.0 µM) was 96%, the residual activity (SYK (human); compound 1.0 µM) was 107% and the residual activity (SYK (human); compound 10.0 µM) was 95%.

Reference: the kinase profiling compilation of Christmann-Franck et al. (2016)
